Read-outs that look alike come from different tables or passages of the source.
Columns and labels:
LIF/LIFR = settings: background; cited from earlier work
other steroid receptors = assay: Binding to other steroid receptors; settings: Table 1
[1] = PK study, oral bioavailability in rats; format: in vivo, Sprague Dawley rats; settings: for bioavailability: Sprague Dawley, rat, plasma, po
Description: For example, the oral bioavailability can be determined by the formula (1):
F=100*(AUCpo*Div/AUCiv*Dpo) (1)
where: F is bioavailability; AUCpo is dose-corrected area under curve of non-intravenous oral drug; Div is the intravenous dose; AUCiv is the area under the curve intravenous; and Dpo is the oral dose.

[2] = rodent pharmacokinetic (PK) studies
xenograft and PDX models = settings: background; cited from earlier work
MCF7/LIF cells = assay: Effect on MCF7 cells with artificial LIF expression (FIG. 1); format: cell-based; settings: artificial expression of LIF in MCF7 cells
Experimental: (§1) The artificial expression of LIF in MCF7 cells (MCF7/LIF) made those cells vulnerable to LIF inhibitors (FIG. 1) such as compound 5 (EC905) and compound 13 (EC915)
(§2) In order to identify the mechanism of action of EC914, we checked cytotoxicity of these compounds in various cells lines and derived IC50 values. Briefly, 5×10^3 cells were seeded in 96-well plates and incubated with compounds (0.0001-10 μmol/L) or dimethyl sulfoxide (DMSO; 0.02% v/v) for 24, 48, and 72 hours at 37° C. and cell viability was measured using a Fluoroscan plate reader (Nair et al. Estrogen receptor-β activation in combination with letrozole blocks the growth of breast cancer tumors resistant to letrozole therapy. Steroids. 2011 July; 76(8):792-6).

[3] = tested on: MDR1, CD44, Sox2, ALDH1, and CD133; assay: Western blot of CSC marker expression in PCa (FIG. 7C); format: cell-based
Experimental: (§3) In this study, the cellular signaling disrupted upon EC 914 treatment was analyzed. […] Thus, cancer stemness enrichment upon DTX treatment might be abolished by LIF/LIFR signaling disruption through EC914 inhibitor.

[4] = tested on: triple negative breast cancer cells; assay: Antiproliferative activity in TNBC cells; format: cell-based
Experimental: as §1, §2

[5] = tested on: murine and human PCa cells; assay: Viability and Incucyte Cytotox assay of PCa cells (FIG. 6); format: cell-based
Description: FIG. 6A depicts a line graph showing significant decline in the viability of murine and human PCa cells upon treatment with EC914 and/or Docetaxel.

[6] = tested on: STAT1, STAT3, AKT, ERK, Myc, and tCyclinD1 proteins; assay: Western blot of cellular signaling in PCa cells (FIG. 7A); format: cell-based; settings: no change in total proteins
Experimental: as §3

HESE cells = assay: Caspase-3/7 apoptosis assay (Caspase-Glo); format: cell-based; settings: Caspase-3/7 activity
Experimental: Caspase-3/7 activity in HESE cells was measured using Caspase-Glo assay kit (Promega), as described before (Bhaskaran et al, 2013). Briefly, cells were homogenized in homogenization buffer (25 mmol/L HEPES, pH 7.5, 5 mmol/L MgCl2, and 1 mmol/L EGTA), protease inhibitors, and the homogenate was centrifuged at 13,000 rpm at 4° C. for 15 minutes. To 10 μL of the supernatant containing protein was added to an equal volume of the assay reagent and incubated at room temperature for 2 hours. The luminescence was measured using a luminometer.

pSTAT3 = assay: Western blot of STAT3 phosphorylation (FIG. 2); format: cell-based
Experimental: It is believed that EC914 binds directly to LIFR and blocks LIF signaling. Binding of EC914 to LIFR was measured by microscale thermophoresis (MST). The binding kD was 174 nM (FIG. 3).
In brief, MDA-MB-231/BT549 cells were treated with compounds for 3 days at different concentrations (10, 100 nM) and cell lysates were separated by 8% SDS-PAGE and transferred to polyvinylidene difluoride membranes. Membranes were then incubated with primary antibodies including phosphorylated and/or total pSTAT3. After overnight incubation at 4° C., membranes were incubated with secondary antibodies. Immunoreactive bands were then visualized by the enhanced chemiluminescence (ECL) detection system (GE healthcare.

[7] = tested on: 22Rv1 and cE2 mouse syngeneic cells; assay: Prostate cancer tumor models in vivo (FIG. 9); settings: 22Rv1 and cE2 subcutaneous tumors in athymic nude mice
Experimental: 22Rv1 and cE2 mouse syngeneic cells were subcutaneously implanted in athymic nude mice (0.75×10^6/mice). Two weeks after post-implantation, mice were randomized into four groups. Group 1 mice received saline, whereas group 2 and group 3 mice received EC 914 (every alternative day) or DTX (once in 3 days) alone. Finally, group 4 mice were administered with both EC 914 and DTX. […] Based on this rationale, it is believed that LIFR is overexpressed in response to DTX treatment and induces resistance, and enriches the CSC population in metastatic CRPC.

LIFR = molecular target: T1, LIFR (Homo sapiens, UniProt P42702); assay: Microscale thermophoresis (MST) binding to LIFR
T1 sequence (P42702 45-1097): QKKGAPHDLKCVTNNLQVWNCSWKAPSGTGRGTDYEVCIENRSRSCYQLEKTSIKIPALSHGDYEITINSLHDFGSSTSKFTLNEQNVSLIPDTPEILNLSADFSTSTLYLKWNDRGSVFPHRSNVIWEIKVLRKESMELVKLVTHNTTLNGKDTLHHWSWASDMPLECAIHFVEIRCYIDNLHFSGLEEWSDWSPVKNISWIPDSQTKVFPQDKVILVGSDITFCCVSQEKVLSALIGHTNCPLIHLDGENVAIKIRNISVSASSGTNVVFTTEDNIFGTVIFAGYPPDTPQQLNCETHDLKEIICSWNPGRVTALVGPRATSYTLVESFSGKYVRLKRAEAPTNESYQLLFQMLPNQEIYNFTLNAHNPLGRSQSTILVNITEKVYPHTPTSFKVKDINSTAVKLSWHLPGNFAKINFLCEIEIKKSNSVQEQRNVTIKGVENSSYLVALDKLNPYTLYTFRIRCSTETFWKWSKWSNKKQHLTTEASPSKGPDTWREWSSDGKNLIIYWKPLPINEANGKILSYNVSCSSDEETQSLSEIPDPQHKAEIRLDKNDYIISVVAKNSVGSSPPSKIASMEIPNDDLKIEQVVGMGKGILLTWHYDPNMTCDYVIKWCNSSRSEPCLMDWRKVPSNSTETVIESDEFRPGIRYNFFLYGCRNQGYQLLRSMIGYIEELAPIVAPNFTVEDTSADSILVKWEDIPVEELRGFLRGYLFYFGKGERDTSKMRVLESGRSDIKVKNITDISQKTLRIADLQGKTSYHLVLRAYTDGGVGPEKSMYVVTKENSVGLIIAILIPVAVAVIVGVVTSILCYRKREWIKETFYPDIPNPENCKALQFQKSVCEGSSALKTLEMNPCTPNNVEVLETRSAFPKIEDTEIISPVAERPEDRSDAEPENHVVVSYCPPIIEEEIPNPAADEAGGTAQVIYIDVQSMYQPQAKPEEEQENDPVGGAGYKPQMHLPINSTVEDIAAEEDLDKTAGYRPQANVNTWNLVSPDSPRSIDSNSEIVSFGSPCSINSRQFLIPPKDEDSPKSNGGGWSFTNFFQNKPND
Experimental: Binding of EC914 to LIFR was measured by microscale thermophoresis (MST).

[8] = tested on: NE-1.8 (neuro endocrine-like) prostate cancer cell line; assay: Calcein AM fluorescent dye-based cell viability assay, NE-1.8 cells; settings: 96 hours, 50 nM to 250 nm EC914
Experimental: In one test, NE-1.8 (neuro endocrine-like) prostate cancer cell line was treated with compound 12 (EC914).
After 96 hours, the cell viability was observed using Calcein AM fluorescent dye-based cell viability assay. More than 50-80% of cell growth inhibition was observed from 50 nM to 250 nm concentration of EC914 compared to vehicle control. Similar growth inhibition trend was observed upon treatment with LIF inhibitor on the C42B prostate cancer cell line at 48 hrs.

MDA-MB-231 xenograft = assay: MDA-MB-231 tumor xenograft study; format: in vivo, athymic nude mice; settings: TNBC mouse xenograft model, initial 3 doses of 10 mg/kg, oral, FIG. 5
Experimental: Uniform suspensions of human breast cancer MDA-MB-231 cells (2×10^6) in 100 μL (0.02 carboxymethyl cellulose in phosphate buffered saline) were injected subcutaneously into the right and left flanks of 4- to 5-week-old female athymic nude mice (Charles River Laboratories). After 10 days, when the tumor […] reaches 100 mm^3, the mice were randomly allocated to 3 groups of each containing 6 animals. Group 1 served as the untreated control, groups 2 received EC914 orally at 10 mg/kg daily for 3 doses. All drug was formulated in a vehicle containing 58.5% Labrasol ALF, 22.5% Labrafil M, 1944 CS, 9% Capryol 90 and 10% water q.s. Tumors were allowed to reach palpability before drug intervention. Tumor size was measured every 3 days using digital Vernier Calipers and tumor volume was calculated using the ellipsoid formula [D×(d2)]/2, where D is the large diameter of the tumor and d represents the small diameter. On day 19, the mice were euthanized, and tumors were harvested for protein and gene expression studies since the control tumors reached maximum allowable size as the IACUC regulations (See FIG. 5).

## C#CC(F)(F)[C@]1(O)CC[C@H]2[C@@H]3CCC4=CC(=O)CCC4=C3[C@@H](c3ccc(C4CC4)cc3)C[C@@]21C [EC330]
LIF/LIFR
  LIF/LIFR mediated proliferation and tumor growth: efficiently inhibited

## C#CC(F)(F)[C@]1(O)CC[C@H]2[C@@H]3CCC4=CC(=O)CCC4=C3[C@@H](c3ccc(-c4c(C)cc(C)cc4C)cc3)C[C@@]21C [EC359, reference compound]
Other steroid receptors
  Binding to other steroid receptors: Low binding to PR
[1]; Table 1
  oral bioavailability: 16%
[2]
  oral bioavailability: 16%
Xenograft and PDX models
  efficacy in preclinical xenograft and PDX models: good efficacy

## C#CC(F)(F)[C@]1(O)CCC2C3CCC4=CC(=O)CCC4=C3[C@@H](c3cccc(-c4cccnc4)c3)C[C@@]21C (stereo partly shown) [EC905]
MCF7/LIF cells
  vulnerability of MCF7/LIF cells to LIF inhibitors: vulnerable

## C#CC(F)(F)[C@]1(O)CCC2C3CCC4=CC(=O)CCC4=C3[C@@H](c3cccc(C#N)c3C)C[C@@]21C (stereo partly shown) [EC914]
[3]
  key CSC marker expression (MDR1, CD44, Sox2, ALDH1, CD133): specifically decreases
[4]
  antiproliferative activity: potent antiproliferative activity
[5]; 22Rv1 cells, Incucyte Cytotox assay, FIG. 6B
  cytotoxicity of Docetaxel in PCa: increases cytotoxicity of Docetaxel
[5]; murine and human PCa cells, FIG. 6A
  viability of PCa cells: decreases viability
[6]
  phosphorylation of STAT1 and STAT3 and of AKT, ERK, Myc, tCyclinD1: decreased
Other steroid receptors
  Binding to other steroid receptors: No
[1]; PK studies in Sprague Dawley rats, FIG. 4
  bioavailability: 87.9%
[1]; Table 1
  bioavailability: 87.9%
HESE cells
  percent of apoptosis induced: comparable to that of EC359
pSTAT3
  STAT3 phosphorylation: reduced STAT3 phosphorylation
[7]
  tumor growth: inhibit tumor growth
LIFR; MST, FIG. 3, read-out: binding kD to LIFR
  Kd: 174 nM
LIFR; Table 1, read-out: LIFR binding
  Kd: 175 nM
[8]
  cell growth inhibition compared to vehicle control: 50-80%
MDA-MB-231 xenograft
  tumor burden: reduced tumors burden

## C#CC(F)(F)[C@]1(O)CCC2C3CCC4=CC(=O)CCC4=C3[C@@H](c3ccc(C#N)cc3C)C[C@@]21C (stereo partly shown) [EC915]
MCF7/LIF cells
  vulnerability of MCF7/LIF cells to LIF inhibitors: vulnerable

Reference: US20240124515A1, “ORALLY ACTIVE LEUKEMIA INHIBITORY FACTOR (LIF) ANTAGONISTS FOR THE TREATMENT OF CANCER” (Evestra, Inc., priority 2021, published 2024)
